These results are taken from patent publication US5607926A, “Cephalosporin antibiotics” (Microcide Pharmaceuticals, Inc., priority 1995, dated 1997).

In experiment [1] the test system is S. aureus ATCC 29213. In words: In vitro antibacterial evaluation, MIC by agar dilution, S. aureus ATCC 29213. Format: cell-based. The settings on record: Staphylococcus aureus, ATCC29213; S. aureus ATCC 29213; read-out: MIC. The gist of the method:
(§1)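 Two-fold dilutions of test compound, 128 μg/mL down to ≤0.25 μg/mL, were set in Mueller-Hinton agar in duplicate and spot-inoculated with about 10^4 cfu of log-phase culture. Plates were incubated 16-20 hours at 35°-36° C, and MIC taken as the lowest concentration inhibiting growth, following NCCLS agar dilution.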

In experiment [2] the test system is S. aureus ATCC 25923. Kind of experiment: In vitro antibacterial evaluation, MIC by agar dilution, S. aureus ATCC 25923. It counts as cell-based. The note with it: Staphylococcus aureus, ATCC25923; S. aureus ATCC 25923; read-out: MIC. The gist of the method: as §1
Experiment [3] relates to S. epidermidis ATCC 31432. In words: In vitro antibacterial evaluation, MIC by agar dilution, S. epidermidis ATCC 31432. It counts as cell-based. The note with it: Staphylococcus epidermidis, ATCC31432; S. epidermidis ATCC 31432; read-out: MIC. A digest of the protocol: as §1
For orientation: In agar dilution, organisms are placed on agar that contains the substance at set levels.

The test system of experiment [4] is S. aureus Col (Meth^R)(lac^-). In words: In vitro antibacterial evaluation, MIC by agar dilution, S. aureus Col. Format: cell-based. The settings on record: S. aureus Col. The method, then:
(§2) The compounds of the invention were evaluated against several β-lactamresistant bacteria strains by determining the minimum inhibitory concentration (MIC, μg/ml) of each compound with respect to each strain. The MIC, the lowest concentration of antibiotic which inhibits growth of the test organism, was determined by the agar dilution method.
(§3) To determine the MIC for bacterial isolates, the test compound was incorporated in a series of two-fold dilutions into liquified Mueller-Hinton agar. Upon solidification, a number of different bacterial strains were spot inoculated with a replicating device onto the agar surface. […] The procedures used in these studies have been standardized by the National Committee for Clinical Laboratory Standards (NCCLS), as per the NCCLS publication entitled METHODS FOR DILUTION ANTIMICROBIAL SUSCEPTIBILITY TESTS (1991), which is incorporated herein by reference.
(§4) Aliquots of antimicrobial agents were prepared in phosphate buffered saline (PBS) at pH 7.2. Tween 20 or DMSO was used as a solubilizing vehicle as needed. Standard methods of vortexing, sonicating and gentle heat were used to facilitate solubilizing the test agent. Typically, the concentration of the stock solution was 10× that of the highest drug concentration tested. A 1.28 mg/mL stock solution was used with a subsequent highest working concentration of 128 μg/mL. Serial two-fold dilutions were done through ≤0.25 μg/mL. Each drug level was tested in duplicate. Two-fold drug dilutions were done in sterile 50 mL tubes with a final drug volume of 5 mL. Upon the addition of 45 mL of molten agar, a 10-fold dilution resulted. Two, 25 mL. plates were then poured into 15×150 mm square Petri plates with grids and allowed to harden.
(§5) A control plate with a reference drug, either cefotaxime, vancomycin or imipenem, was used as the positive growth control. Stock concentrations of reference antibiotics were prepared and frozen at -80° C. Upon preparation, the control plates were sealed and stored in the refrigerator for up to 1 week prior to use; however, imipenem control plates had to be prepared just prior to use. All test plates were used within 24 hours of preparation.
(§6) Satisfactory results were obtained where the inoculum contained about 10^4 colony forming units (cfu) ±0.5 logs. Starting with pure cultures of the test isolates on agar plates, a few isolated colonies were transferred to a tube of nutrient broth and allowed to grow 4-6 hours at 35°-36° C. to reach log-phase growth. Dropwise addition of the broth culture to PBS was done to match a 0.5 McFarland turbidity standard equal to 10^8 cfu/mL. This was further diluted ten-fold in PBS to reach a working inoculum concentration of 10^7 cfu/mL. When 1 μL of the working inoculum was applied to the agar surface a concentration of about 10^4 cfu per spot was obtained.
(§7) Disposable sterile 1 μL loops were used to inoculate test plates, with each isolate in a designated grid on the agar plate. An alternate method of inoculation involved the use of a replica plater, a device with 48 steel pins allowing the simultaneous inoculation of multiple isolates. After the spots had dried, the plates were incubated at 35°-36° C. for 16-20 hours. Endpoints were assessed as the minimum inhibitory concentration (MIC) of antimicrobial agent.
The novel agents of this invention are notable for their enhanced activity against S. aureus Col and Enterococci (E. faecium and E. faecalis). […]

Experiment [5] has as its system S. aureus Col8A (Meth^S)(lac^-). In words: In vitro antibacterial evaluation, MIC by agar dilution, S. aureus Col8A. It counts as cell-based. The settings on record: Staphylococcus aureus. A digest of the protocol: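 Agar dilution per NCCLS (1991): two-fold dilutions from 128 μg/mL down to ≤0.25 μg/mL in Mueller-Hinton agar, each level in duplicate. Spots of about 10^4 cfu of log-phase culture; 16-20 h at 35°-36° C. MIC in μg/ml is the lowest concentration inhibiting growth.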

For experiment [6], the system named is E. faecalis ATCC 29212. Kind of experiment: In vitro antibacterial evaluation, MIC by agar dilution, E. faecalis ATCC 29212. Format: cell-based. The settings on record: Enterococcus faecalis, ATCC29212; E. faecalis ATCC 29212; read-out: MIC. The gist of the method:
as §1

For experiment [7], the system named is E. coli ATCC 25922. In words: In vitro antibacterial evaluation, MIC by agar dilution, E. coli ATCC 25922. It counts as cell-based. The note with it: Escherichia coli, ATCC25922, read-out: MIC. The gist of the method: as §1
Experiment [8] relates to P. aeruginosa ATCC 27853. In words: In vitro antibacterial evaluation, MIC by agar dilution, P. aeruginosa ATCC 27853. It counts as cell-based. The settings on record: Pseudomonas aeruginosa, ATCC27853, read-out: MIC. A digest of the protocol: as §1
Experiment [9] deals with X. maltophilia ATCC 13637. In words: In vitro antibacterial evaluation, MIC by agar dilution, X. maltophilia ATCC 13637. The note with it: Stenotrophomonas maltophilia, ATCC13637. Format: cell-based. As to the method:
as §2, §3, §4, §5, §6, §7

The subject of experiment [10] is Enterococci (E. faecium and E. faecalis). Kind of experiment: In vitro antibacterial evaluation, Enterococci (E. faecium and E. faecalis). Format: cell-based. The method, then:
as §2, §3
Aliquots of antimicrobial agents were prepared in phosphate buffered saline (PBS) at pH 7.2. Tween 20 or DMSO was used as a solubilizing vehicle as needed. Standard methods of vortexing, sonicating and gentle heat were used to facilitate solubilizing the test agent. […]
Disposable sterile 1 μL loops were used to inoculate test plates, with each isolate in a designated grid on the agar plate. […] Endpoints were assessed as the minimum inhibitory concentration (MIC) of antimicrobial agent. […]

In experiment [11] the test system is MRSA strains. The note with it: background art; cited from earlier work.

≈ marks a conversion by molar mass, not a printed value. Some results are limits rather than exact numbers.

In general, MIC refers to the lowest concentration found to suppress growth.

Take `O=C(Cc1ccccc1)N[C@@H]1C(=O)N2C(C(=O)O)=C(SCc3ccc(-c4ccccc4)cc3)CS[C@H]12` [Cmpd 12, (7R)-7-[(Phenylacetyl)amino]-3-(4-biphenylmethylthio)-3-cephem-4-carboxylic acid]: the MIC in experiment [1] is less than 0.06 µg/mL; in experiment [2], less than 0.06 µg/mL; in experiment [3], less than 0.06 µg/mL; in experiment [5], less than 0.06 µg/mL; in experiment [6] it was 4 µg/mL (≈ 7.74 µM); in experiment [7], more than 32 µg/mL. The MIC in experiment [8] and in [9] was more than 32 µg/mL throughout. In experiment [4], the “activity against S. aureus Col” value is on record as “lacking activity against S. aureus Col”. Further, the “activity against enterococci” value in [10] is recorded as “potent activity against enterococci”.

Regarding `C[C@@H](O)[C@H]1C(=O)N2C(C(=O)O)=C(SCCN=CN)C[C@H]12` [imipenem], the “activity against MRSA strains” value in experiment [11] is listed as “active against a few MRSA strains”.
